{
  "source": "patent US5164400A",
  "about": "“Pyrroloquinoline compounds” (Fujisawa Pharmaceutical Co., Ltd., priority 1989, dated 1992)",
  "key": {"Sterol Synthesis": {"test_system": "Sterol Synthesis", "experiment": "Assay for Sterol Synthesis in Rats (in vivo)", "set-up": "species or system Male SD rats", "settings": "dose 10.0 mg/kg, oral intubation, [1-^14 C] acetate i.p. 1 hour after compound, blood after 50 minutes", "experimental": "(2) Test 2 [Assay for Sterol Synthesis in Rats (in vivo)]\nMale SD rats are administered the test compound by oral intubation. One hour after compound administration, the rats are injected intraperitoneally with sodium [1-^14 C] acetate at 3.7 MBq/kg (=100 μCi/kg). After 50 minutes, 2.5 ml of blood samples are taken by cardiac puncture under short-term ether anesthesia. The plasma, obtained by centrifugation, is hydrolyzed and nonsaponifiable lipids are extracted with the petroleum ether. Sterols are isolated from these extracts as digitonide, dissolved in 1ml of methanol and the radioactivity is counted."}, "[1]": {"molecular_target": "T1, rat liver 3-Hydroxy-3-methylglutary-Coenzyme A Reductase (Rattus norvegicus, UniProt P51639)", "T1 construct": "from tissue; host or cells: rat liver microsomes (solubilized, purified through second ammonium sulfate precipitation)", "T1 sequence (P51639 1-887)": "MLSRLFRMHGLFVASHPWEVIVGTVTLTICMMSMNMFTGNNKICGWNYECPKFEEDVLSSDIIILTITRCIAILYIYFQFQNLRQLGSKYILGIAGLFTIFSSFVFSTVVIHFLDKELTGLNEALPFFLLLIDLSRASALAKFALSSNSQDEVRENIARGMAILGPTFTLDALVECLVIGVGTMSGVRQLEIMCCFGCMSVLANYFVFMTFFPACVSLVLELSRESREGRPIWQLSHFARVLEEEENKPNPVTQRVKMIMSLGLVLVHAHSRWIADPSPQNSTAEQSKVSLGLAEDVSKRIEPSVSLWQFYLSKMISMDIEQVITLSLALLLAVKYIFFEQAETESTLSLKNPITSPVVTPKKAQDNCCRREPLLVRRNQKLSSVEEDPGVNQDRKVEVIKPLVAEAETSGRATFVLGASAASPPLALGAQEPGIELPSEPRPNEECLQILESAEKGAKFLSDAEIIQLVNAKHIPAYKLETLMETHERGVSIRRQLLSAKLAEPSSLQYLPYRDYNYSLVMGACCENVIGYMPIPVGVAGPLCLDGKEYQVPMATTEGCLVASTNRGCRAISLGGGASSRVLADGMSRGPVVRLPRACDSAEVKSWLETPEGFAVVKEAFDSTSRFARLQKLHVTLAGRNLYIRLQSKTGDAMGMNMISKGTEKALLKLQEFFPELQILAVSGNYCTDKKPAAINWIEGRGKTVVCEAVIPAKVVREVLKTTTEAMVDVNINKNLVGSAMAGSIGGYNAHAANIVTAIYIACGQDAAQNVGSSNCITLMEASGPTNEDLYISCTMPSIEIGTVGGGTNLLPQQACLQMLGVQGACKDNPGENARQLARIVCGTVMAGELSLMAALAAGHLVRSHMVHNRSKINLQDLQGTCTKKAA", "experiment": "Assay for rat liver 3-Hydroxy-3-methylglutary-Coenzyme A Reductase Activity (in vitro)", "type": "biochemical", "settings": "enzyme solubilized from rat liver microsomes, pH 7.4, 37° C., 20 minutes", "experimental": "(1) Test 1 [Assay for rat liver 3-Hydroxy-3-methylglutary-Coenzyme A Reductase Activity (in vitro)]\nFive μl or an enzyme solution, solubilized from rat liver microsomes and purified through the second ammonium sulfate precipitation step, is added to 35 μl of a reaction mixture containing 1.11 kBg(=0.03 μCi) or 3-hydroxy-3-metyhl [3-^14 C] glutary coenzyme A, 100 mM potassium phosphate buffer, pH 7.4, 10 mM ethylenediaminetetraacetic acid (EDTA), 10 mM dithiothreitol with or without the graded concentrations of the test compound. The reaction is started by addition of 10 μl of 25 mM β-nicotinamide adenine dinucleotide phosphate, reduced form (NADPH). The mixture is incubated at 37° C. for 20 minutes. The reaction is terminated by addition of 10 μl of 2N hydrochloric acid. After an additional incubation for 15 minutes at 37° C., a 20 μl aliquot of the mixture is applied to a Silica Gel 60 F-254 plate (made by Merck & Co., Inc.). The chromatograms are developed in benzene/acetone (1:1). Sections of the thin layer plates where the mevalonolactone is located are scraped and the radioactivity are counted."}},
  "data": [
    {"smiles": "COc1cc(F)ccc1-c1c(/C=C/[C@@H](O)C[C@@H](O)CC(=O)O)n2c3c(cccc13)CCC2(C)C", "note": "(relative stereo) [Compound A]", "values": [
      {"measurement": "Inhibition (%)", "setting": "Sterol Synthesis", "result": 95.7, "unit": "%"},
      {"measurement": "IC50", "setting": "[1]", "result": 53.5, "unit": "nM"}
    ]},
    {"smiles": "COc1cc(F)ccc1-c1c(/C=C/C(O)CC(O)CC(=O)O)n2c3c(cccc13)CCC2(C)C", "note": "(single isomer, unassigned) [Compound B, sodium (+)-erythro-(E)-7-[5,6-dihydro-4,4-dimethyl-1-(4-fluoro-2-methoxyphenyl)-4H-pyrrolo[3,2,1-ij]quinolin-2-yl]-3,5-dihydroxyhept-6-enoate]", "values": [
      {"measurement": "IC50", "setting": "[1]", "result": 25.7, "unit": "nM"}
    ]}
  ]
}
